Values quoted from earlier work, collected in patent US7025979B2, “Male contraceptive formulation comprising norethisterone” (Schering AG, priority 2000, dated 2006).

Legend:
spermatogenesis = conditions: use of the progestin; literature (Merrigiola et al, Bebb et al)
[1] = in higher doses; literature (Merrigiola et al, Bebb et al)

Which suppression of spermatogenesis (spermatogenesis) does the source give for `CC(=O)O[C@]1(C(C)=O)CC[C@H]2[C@@H]3C=C(Cl)C4=CC(=O)[C@@H]5C[C@@H]5[C@]4(C)[C@H]3CC[C@@]21C` [cyproterone acetate] here?
Its suppression of spermatogenesis is “ineffective in the suppression of spermatogenesis”.

And the “red blood cell count” value [1]?
Its value is “significant decreases in red blood cell count”.

For `C#C[C@]1(O)CC[C@H]2[C@@H]3CCC4=CC(=O)CC[C@@H]4[C@H]3CC[C@@]21CC` [levonorgestrel], which “red blood cell count” value [1] is on record?
Its value is “significant decreases in red blood cell count”.
